Patent US11591596B2, “Compounds and compositions including phosphorothioated oligodeoxynucleotide, and methods of use thereof” (City of Hope, priority 2015, dated 2023)

Experiments:
[1] = test system: long term hematopoietic stem cells (LTHSC, Lin-Sca-1+c-kit+Fit3-CD150+CD48−) from normal and CML mouse; assay: Cell cycling of murine LTHSC by EDU/DAPi staining; format: cell-based; settings: 500 nM, compared with the CpG-Scr
Method: Normal (NL) and CML murine LTHSC (Lin-Sca-1+Kit+Fit3− CD150+CD48− cells) were sorted and then treated with 500 nm CpG-miR126 inhibitor or CpG-SCR for 72 hours, then cell cycling was analyzed by EDU/DAPi staining.

[2] = test system: normal and CML CD34+CD38− primitive progenitors; assay: Cell cycling of CD34+CD38- cells by EDU/DAPi staining; format: cell-based, human; settings: 500 nM, 72 hours
Method: FIGS. 9A-9D are a series of cell sorting plots showing increased cell cycle in CD34+CD38− cells after knockdown of […]. Normal (NL; FIGS. 9A-9B) and CML human CD34+CD38− cells (FIGS. 9C-9D) were sorted and then cultured with 500 nm CpG-miR126 inh-Cy3 or CpG-SCR control for 72 hours, and then cell cycling was analyzed by EDU/DAPi staining.
CML CD34+, CD34+CD38+ committed and CD34+CD38− primitive progenitors were cultured with CpG-scramble RNA (500 nM), CpG-anti-miR126 inhibitor (500 nM), CpG-scramble RNA (500 nM)+Nilotinib (NIL, 5 uM), and CpG-anti-miR126 inhibitor (500 nM)+NIL (5 uM) for 72 hours and then cell cycling and apoptosis were analyzed by EDU/DAPi and Annexin V/DAPi staining.

miR126 = assay: miRNA 126 expression in AML and CML cell lines by Q-RT-PCR; format: cell-based, human; settings: 500 nM, 24 hours
Method: FIGS. 4A-4G are bar graphs showing miRNA 126 expression in AML and CML cell lines. Cells were cultured with miR126-inhibitor-Cy3 (Cy3-200 nM0, human CD45 (Ab-200 nM) or Transferrin (TF-200 nM)-conjugated NP containing antagomiR-126-Cy3, CpG-miR126 inhibitor-Cy3 (CpG-Cy3-200 nM and 500 nM) for 24 hours, then miR126 and RNU44 (control) expression in these cells was analyzed by q-RT PCR. The miR126 expression levels were normalized to RNU44 and calculated by using the comparative 2^−ΔΔct method. FIG. 4A is a bar graph showing miRNA 126 expression in the K562 CML cell line. FIG. 4B is a bar graph showing miRNA 126 expression in the KG1A AML cell line. FIG. 4C is a bar graph showing miRNA 126 expression in the MV4-11 AML cell line. FIG. 4D is a bar graph showing the miRNA 126 expression in the Molm13 AML cell line. FIG. 4E is a bar graph showing the miRNA 126 expression in the NB4 AML cell line. […]
miRNA 126 expression in AML and CML lines was evaluated. CML (K562) (FIG. 4A) and AML cell lines (KG1A, MV4-11, Molm13, NB4, OCI and HL60) (FIGS. 4B-4G) were cultured with anti-miR126 inhibitor-Cy3 (Cy3 ctrl, 200 nM), human CD45 (Ab-NP, 200 nM) or Transferrin (TF-NP, 200 nM)-conjugated NP containing anti-miR-126-Cy3, or CpG-anti-miR126 inhibitor-Cy3 (CpG-200 nM and 500 nM) for 24 hours, then miR126 and RNU44 (control) expression in these cells were analyzed by Q-RT-PCR.

miR-126 = miR-126 expression in K562 and MV4-11 cells with miR-126 inhibitors or mimics; format: cell-based; settings: 500 nM, 24 hours
Method: FIGS. 26A-26E. Effective knockdown of miR-126 with miR-126 inhibitors conjugated with CpG, GpC and PS, and effective over-expression with miR-126 mimics in K562 and MV4-11 cells. K562 and MV4-11 cells were treated with miR-126 inhibitors conjugated with CpG, GpC, PS (FIGS. 26A-26B) or miR-126 mimics (615, 616 and 617) (FIGS. 26C-26D) (500 nM) for 24 hours, and miR-126 expression was measured in these cells. […] FIG. 26E) Tabulation of sequence set forth herein.
Effective knockdown of miR-126 with miR-126 inhibitors conjugated with CpG, GpC and PS, and effective over-expression with miR-126 mimics in K562 and MV4-11 cells. K562 and MV4-11 cells were treated with miR-126 inhibitors conjugated with CpG, GpC, PS (FIGS. 26A-26B) or miR-126 mimics (615, 616 and 617) (FIGS. 26C-26D) (500 nM) for 24 hours, and miR-126 expression was measured in these cells.

[3] = test system: CML cells in SCLtTA/BCR-ABL mice; assay: In vivo treatment of SCLtTA/BCR-ABL mice; set-up: species or system mouse; settings: 3 weeks, compared with NIL+SCR
Method: SCLtTA/BCR-ABL mice were treated with CpG-miR-126 inhibitor (5 mg/kg, every other day, iv injection), SCR (5 mg/kg, every other day, iv injection), NIL (50 mg/kg, daily by garage)+SCR, NIL+miR-126 inhibitor for 3 weeks and then the remaining CML cells in the PB (FIG. 13A), BM (FIG. 13C) and spleen (FIG. 13D) were analyzed.
FIGS. 14A-D are scatter plots showing reduced CML LSK and LSC observed in the bone marrow (BM) (FIGS. 14A, 14C) and spleen (FIGS. 14B, 14D) of the mice treated with NIL+miR126 inhibitor compared with the mice treated with NIL+SCR. SCLtTA/BCR-ABL mice were treated with CpG-miR-126 inhibitor, SCR, NIL+SCR, NIL+miR-126 inhibitor for 3 weeks and then the remaining CML LSK primitive cells and LSC in the BM and spleen were analyzed.
SCLtTA/BCR-ABL mice were treated with CpG-miR-126 inhibitor (5 mg/kg, every other day, iv injection), SCR (5 mg/kg, every other day, iv injection), NIL (50 mg/kg, daily by garage)+SCR, NIL+miR-126 inhibitor for 3 weeks and then the remaining CML cells in the PB, BM and spleen were analyzed. […] The effect of CpG-anti-miR-126 on growth of primary AML LSC and therapeutic response in vivo is still ongoing. These observations indicate that blocking of miR-126 by a myeloid cell-specific CpG-anti-miR-126 ODN inhibitor, among other compounds of the present disclosure, is very effective, and therefore represents a novel therapeutic method targeting miRNA in leukemia and other types of cancer disclosed herein.

[4] = 5 mg/kg every other day iv + NIL 50 mg/kg daily

5′ G*G*T GCA TCG ATG CAGG*G*G* G*G (SEQ ID NO: 1) xxxxx mCmGmC mAmUmU mAmUmU mAmCmU mCmAmC mGmGmU mAmCmG mA (SEQ ID NO: 17) 3′ [CpG-anti-miR126]
cell-cycle entry [1]: increased cell-cycle entry
cell cycling [2]: Increased cell cycling
downregulation of miRNA126 (miR126; all tested human AML and CML cell lines): most effective downregulation
reduction of target miRNA expression (miR126; HL60, K562, MV4-11, MOLM13 and OCI cells): more than 50%
miR-126 expression (knockdown by inhibitors) (miR-126): very effective in reducing miR-126
CML white blood cells in the PB [3, 4]: Reduced CML white blood cells
spleen weight [3, 4]: Reduced spleen weight
CML LSK in the BM and spleen ([3]; with NIL): Reduced
CML LTHSC in the BM and spleen ([3]; with NIL): Reduced
CML cells in the BM and spleen ([3]; with NIL): Reduced
